Reference: the supplement of paper PMC7017272
± gives the standard deviation of the averaged measurements. Values belong to the compound of their own block, whether it stands above or below them.

Assays:
[1] = system: UT-SCC-24B; test: relative IC50 (midpoint of the fitted curve; maximal inhibition may be below 50%); higher = less potent; settings: treatment time: 3 days
How it was run: (§1)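 Viability of HPV-negative HNSCC cell lines was measured by CellTiter-Glo 2.0 luminescence. Cells were seeded at 500 cells/well in 384-well plates on plastic, on Matrigel- or Myogel-coated wells (500 µg/mL), or embedded in Matrigel or Myogel plus rat collagen I, then given compounds at five 10-fold concentrations for 3 days, with signals normalised to vehicle (0.1% DMSO) and cell-killing control wells. Fitting of percent-inhibition dose–response curves in the FIMM pipeline yielded IC50, maximal inhibition and drug sensitivity score.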

[2] = system: UT-SCC-73; test: as above; settings: treatment time: 3 days
How it was run: as §1

[3] = system: UT-SCC-14; test: as above; settings: treatment time: 3 days
How it was run: as §1

[4] = system: UT-SCC-8; test: as above; settings: culture condition: embedded in Myogel + collagen I; treatment time: 3 days
How it was run: as §1

[5] = system: UT-SCC-42A; test: as above; settings: treatment time: 3 days
How it was run: as §1

[6] = system: UT-SCC-40; test: as above; settings: treatment time: 3 days
How it was run: as §1

[7] = system: UT-SCC-81; test: as above; settings: treatment time: 3 days
How it was run: as §1

[8] = system: UT-SCC-28; test: as above; settings: culture condition: embedded in Myogel + collagen I; treatment time: 3 days
How it was run: as §1

[9] = system: UT-SCC-42B; test: as above; settings: treatment time: 3 days
How it was run: as §1

[10] = system: UT-SCC-44; test: as above; settings: treatment time: 3 days
How it was run: as §1

[11] = system: UT-SCC-106A; test: as above; settings: treatment time: 3 days
How it was run: as §1

[12] = system: UT-SCC-24A; test: relative IC50 (midpoint of the fitted curve; maximal inhibition may be below 50%); higher = less potent; settings: treatment time: 3 days
Description: (§2)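 HNSCC cell lines (500 cells/well, 384-well) were cultured on plastic, on top of (2D) or embedded (3D) in Matrigel or human leiomyoma matrix Myogel (500 ug/mL; Myogel 3D mixed with rat collagen I). Cells were treated for 3 days with 5 ten-fold concentrations of each drug, and viability was read by CellTiter-Glo. Viability was normalised to DMSO (0% inhibition) and 100 uM benzethonium chloride (100% inhibition) controls and fitted with the FIMM DSRT pipeline to give IC50 (nM), maximal % inhibition and the drug sensitivity score (DSS). Suffixes _1/_2/_3 on drug names are replicates.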

[13] = system: UT-SCC-24A; test: maximal % inhibition of viability relative to DMSO; higher = stronger effect; settings: treatment time: 3 days
Description: as §2

[14] = system: UT-SCC-24A; test: drug sensitivity score (DSS); higher = more sensitive; settings: treatment time: 3 days
Description: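 HNSCC cell lines (500 cells/well, 384-well) were cultured on plastic, on top of (2D) or embedded (3D) in Matrigel or human leiomyoma matrix Myogel (500 ug/mL; Myogel 3D mixed with rat collagen I). Cells were treated for 3 days with 5 ten-fold concentrations of each drug, and viability was read by CellTiter-Glo. Suffixes _1/_2/_3 on drug names are replicates.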

[15] = system: UT-SCC-24B; test: drug sensitivity score (DSS); higher = more sensitive; extreme values may be limits of the assay; settings: treatment time: 3 days
How it was run: as §1

[16] = system: UT-SCC-14; test: as above; settings: treatment time: 3 days
How it was run: as §1

[17] = culture condition: embedded in Myogel + collagen I
[18] = culture condition: on top of Matrigel
[19] = culture condition: on top of Myogel
[20] = culture condition: plastic 2D (no matrix)
[21] = culture condition: embedded in Matrigel

- relative IC50 [1, 17]: 1.48 nM
- relative IC50 [2, 18]: 0.734 nM
- relative IC50 [2, 19]: 1.48 nM
- relative IC50 [2, 20]: 3 nM
- relative IC50 [3, 21]: 0.761 nM
- relative IC50 [3, 17]: 0.711 nM
- relative IC50 [3, 19]: 0.632 nM
- relative IC50 [3, 20]: 0.876 nM
- relative IC50 [4]: 6.75 nM
- relative IC50 [5, 21]: 6.44 nM
- relative IC50 [5, 17]: 6.31 nM
- relative IC50 [5, 18]: 1.65 nM
- relative IC50 [5, 20]: 4.54 nM
- relative IC50 [6, 21]: 2.37 nM
- relative IC50 [6, 19]: 1.94 nM
- relative IC50 [6, 20]: 1.94 nM
- relative IC50 [7, 17]: 2.46 nM
- relative IC50 [7, 18]: 1.38 nM
- relative IC50 [8]: 4.01 nM
- relative IC50 [9, 19]: 17.4 nM
- relative IC50 [10, 21]: 0.909 nM
- relative IC50 [10, 17]: 4.16 nM
- relative IC50 [10, 19]: 0.271 nM
- relative IC50 [11, 21]: 6.54 nM
- relative IC50 [11, 19]: 8.68 nM
- relative IC50 [12, 17]: 2.61 nM
- relative IC50 [12, 19]: 3.5 nM
- relative IC50 [12, 20]: 1.98 nM
Structure (SMILES): CO[C@H]1C[C@@H]2CC[C@@H](C)[C@@](O)(O2)C(=O)C(=O)N2CCCC[C@H]2C(=O)O[C@H]([C@H](C)C[C@@H]2CC[C@@H](OP(C)(C)=O)[C@H](OC)C2)CC(=O)[C@H](C)/C=C(\C)[C@@H](O)[C@@H](OC)C(=O)[C@H](C)C[C@H](C)/C=C/C=C/C=C/1C [Ridaforolimus]
- maximal % inhibition of viability [13, 21]: 56.1 ± 36%
- maximal % inhibition of viability [13, 17]: 35.7 ± 4%
- maximal % inhibition of viability [13, 18]: 29.4 ± 3.8%
- maximal % inhibition of viability [13, 19]: 32.7 ± 3.6%
- maximal % inhibition of viability [13, 20]: 33 ± 5.9%
- drug sensitivity score [14, 21]: 10.2 ± 10 DSS
- drug sensitivity score [14, 17]: 5.43 ± 0.71 DSS
- drug sensitivity score [14, 18]: 4.57 ± 1.2 DSS
- drug sensitivity score [14, 19]: 5.03 ± 1.4 DSS
- drug sensitivity score [14, 20]: 5.87 ± 0.67 DSS
- drug sensitivity score [15, 21]: 2.9 ± 2.8 DSS
- drug sensitivity score [15, 17]: 7.87 ± 0.8 DSS
- drug sensitivity score [15, 18]: 3.8 ± 0.66 DSS
- drug sensitivity score [15, 19]: 4.63 ± 1.4 DSS
- drug sensitivity score [15, 20]: 5.37 ± 2 DSS
- drug sensitivity score [16, 21]: 13.8 ± 3.1 DSS
- drug sensitivity score [16, 17]: 15.2 ± 1.2 DSS
- drug sensitivity score [16, 18]: 12.9 ± 1.5 DSS
- drug sensitivity score [16, 19]: 13 ± 2.4 DSS
- drug sensitivity score [16, 20]: 11.9 ± 2.8 DSS

- relative IC50 [1, 17]: 62.7 nM
- relative IC50 [1, 18]: 39.5 nM
- relative IC50 [2, 21]: 2.4 nM
- relative IC50 [2, 17]: 3.82 nM
- relative IC50 [2, 18]: 3.23 nM
- relative IC50 [2, 19]: 9.54 nM
- relative IC50 [2, 20]: 5.35 nM
- relative IC50 [3, 17]: 9.53 nM
- relative IC50 [3, 18]: 14.3 nM
- relative IC50 [3, 19]: 16.1 nM
- relative IC50 [5, 21]: 4.26 nM
- relative IC50 [5, 17]: 11.3 nM
- relative IC50 [5, 18]: 4.67 nM
- relative IC50 [5, 20]: 9.23 nM
- relative IC50 [6, 21]: 2.68 nM
- relative IC50 [6, 17]: 6.76 nM
- relative IC50 [6, 18]: 4.29 nM
- relative IC50 [6, 19]: 13.8 nM
- relative IC50 [6, 20]: 10.6 nM
- relative IC50 [7, 18]: 5.89 nM
- relative IC50 [7, 20]: 151 nM
- relative IC50 [9, 21]: 1.54 nM
- relative IC50 [9, 19]: 80.8 nM
- relative IC50 [10, 21]: 3.37 nM
- relative IC50 [10, 17]: 108 nM
- relative IC50 [10, 20]: 7.56 nM
- relative IC50 [11, 21]: 2.16 nM
- relative IC50 [11, 18]: 2.3 nM
- relative IC50 [11, 20]: 2.3 nM
- relative IC50 [12, 18]: 1.23 nM
- relative IC50 [12, 20]: 1.21 nM
Structure (SMILES): Cn1c(=O)c(F)c(Nc2ccc(I)cc2F)c2c(=O)n(C[C@@H](O)CO)cnc21 [TAK-733]
- maximal % inhibition of viability [13, 21]: 81.5 ± 1.9%
- maximal % inhibition of viability [13, 17]: 53.9 ± 2.1%
- maximal % inhibition of viability [13, 18]: 77.7 ± 1.1%
- maximal % inhibition of viability [13, 19]: 45.9 ± 4%
- maximal % inhibition of viability [13, 20]: 70.6 ± 1.3%
- drug sensitivity score [14, 21]: 32.5 ± 1.7 DSS
- drug sensitivity score [14, 17]: 17 ± 1.9 DSS
- drug sensitivity score [14, 18]: 27 ± 0.5 DSS
- drug sensitivity score [14, 19]: 9.37 ± 1.8 DSS
- drug sensitivity score [14, 20]: 24.6 ± 0.76 DSS
- drug sensitivity score [15, 21]: 9.43 ± 5.1 DSS
- drug sensitivity score [15, 17]: 8.77 ± 1.4 DSS
- drug sensitivity score [15, 18]: 10 ± 1.8 DSS
- drug sensitivity score [15, 19]: 5.97 ± 2.3 DSS
- drug sensitivity score [15, 20]: 13 ± 6 DSS
- drug sensitivity score [16, 21]: 11.2 ± 3.2 DSS
- drug sensitivity score [16, 17]: 7.5 ± 1.5 DSS
- drug sensitivity score [16, 18]: 7.13 ± 0.64 DSS
- drug sensitivity score [16, 19]: 5 ± 0.98 DSS
- drug sensitivity score [16, 20]: 2.67 ± 3 DSS
